Among the data in patent US11384078B2, “5,6-fused-bicyclic compounds and compositions for the treatment of parasitic diseases” (NOVARTIS AG, priority 2017, dated 2022) are EC50 values, retold here.

Common to all, as to assay type: cell-based
The test system of assay [1] is Trypanosoma brucei brucei (Lister 427) strain. As to the kind of experiment: Assay for growth inhibition against Trypanosoma brucei brucei (Cell TiterGlo ATP luminescence). Conditions: Trypanosoma brucei, T. brucei brucei (Lister 427); read-out: T. Brucei (HAT) EC50. The essentials: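 Growth read-out is cellular ATP by CellTiter-Glo luminescence, measured 30 min after reagent addition, following 2-day incubation at 37 °C in CO2. Parasites (10,000/mL, HMI-9 plus 10% FBS and 10% serum plus) faced 10 threefold dilutions in duplicate; IC50 taken as 50% growth inhibition versus untreated.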
In general terms: ATP-based viability assays read luminescence as a measure of living cells.

Assay [2] deals with Leishmania donovani axenic amastigote. As to the kind of experiment: In vitro assay for growth inhibition of Leishmania donovani axenic amastigote (Cell TiterGlo luminescence). Conditions: Leishmania donovani, L. donovani axenic amastigotes in vitro; read-out: L. donovani amastigotes EC50. The essentials:
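Compound-treated wells received 9600 axenic amastigotes in RPMI 1640-based medium at pH 5.5 (37 °C, 5% CO2). Growth measured as ATP luminescence (CellTiter-Glo) after 2-day incubation; DMSO and reference compounds served as controls.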

Assay [3] has as its system L. donovani HU3 strain in mouse peritoneal macrophages. As to the kind of experiment: Assay for inhibition of parasitemia of Leishmania donovani in mouse macrophages (SYBR Green nuclei count, high-content imaging). Conditions: Leishmania donovani, Peritoneal macrophage, L. donovani in mouse peritoneal macrophages; read-out: L. donovani in Mouse Macrophages EC50. The essentials: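 Parasite numbers were counted from SYBR Green-stained nuclei imaged by high-content microscopy after paraformaldehyde fixation and Triton permeabilization. Before this, compound was applied for 5 days at 37° C to BALB/c peritoneal macrophages (2×10^4/well) that had been exposed 24 h to 4×10^5 L. donovani HU3 amastigotes harvested from infected mouse spleens.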

In assay [4] the test system is Trypanosoma cruzi amastigotes cultured in 3T3 fibroblast cells. As to the kind of experiment: Assay for growth inhibition of kinetoplastid parasite Trypanosoma cruzi (beta-galactosidase Tulahuen strain, CPRG readout). The conditions noted are these: Trypanosoma cruzi, Fibroblast, T. cruzi amastigotes in 3T3 fibroblast cells; read-out: Buckner infectious T. cruzi EC50. The essentials: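 3T3 fibroblasts (1,000 cells/well) plated overnight, treated with compound in DMSO, then infected with 10,000 Lac-Z-expressing Tulahuen trypomastigotes. After 6 days, 0.6 mM CPRG with 0.6% NP-40 added for 2 h at room temperature; absorbance gives relative intracellular amastigote numbers. Benznidazole and nifurtimox serve as positive controls.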

On to `CC(C)OC(=O)Nc1cnc2nn(-c3cc(NC(=O)N4CCC4)ccc3F)cc2c1` [Compound 138, propan-2-yl N-(2-{5-[(azetidine-1-carbonyl)amino]-2-fluorophenyl}-2H-pyrazolo[3,4-b]pyridin-5-yl)carbamate], for which the EC50 in assay [1] was less than 23 nM; in assay [2] it was 11 nM; in assay [3], 5.7 nM; in assay [4], 47 nM.

Regarding `CNc1cnc2nn(-c3cc(NC(=O)c4ccco4)ccc3F)cc2c1` [Compound 139, N-{4-fluoro-3-[5-(methylamino)-2H-pyrazolo[3,4-b]pyridin-2-yl]phenyl}furan-2-carboxamide], the EC50 was less than 23 nM in assay [1], 740 nM in assay [2], 320 nM in assay [3] and 3000 nM in assay [4].

As to `CN(C)c1cnc2nn(-c3cc(NC(=O)c4ccco4)ccc3F)cc2c1` [Compound 140, N-{3-[5-(dimethylamino)-2H-pyrazolo[3,4-b]pyridin-2-yl]-4-fluorophenyl}furan-2-carboxamide], the EC50 in assay [1] was less than 23 nM; in assay [2], 100 nM; in assay [3], 41 nM; in assay [4], 23 nM.

Turning to `O=C(Nc1ccc(F)c(-n2cc3cc(N4CCCC4)cnc3n2)c1)c1ccco1` [Compound 141, N-{4-fluoro-3-[5-(pyrrolidin-1-yl)-2H-pyrazolo[3,4-b]pyridin-2-yl]phenyl}furan-2-carboxamide], the 50% effective concentration (EC50) in assay [1] is less than 23 nM; in assay [2], 80 nM; in assay [3] it was 12 nM; in assay [4], 22 nM.

On to `CNC(=O)Nc1ccc(F)c(-n2cc3cc(NC)cnc3n2)c1` [Compound 142, 1-{4-fluoro-3-[5-(methylamino)-2H-pyrazolo[3,4-b]pyridin-2-yl]phenyl}-3-methylurea], for which the EC50 in assay [1] turned out to be 4300 nM; in assay [2], 7800 nM; in assay [3] it was 9200 nM; in assay [4] it was 11000 nM.

Turning to `O=C(Nc1ccc(F)c(-n2cc3cc(N4CCC4)cnc3n2)c1)N1CC(F)(F)C1` [Compound 144, N-{3-[5-(azetidin-1-yl)-2H-pyrazolo[3,4-b]pyridin-2-yl]-4-fluorophenyl}-3,3-difluoroazetidine-1-carboxamide], the EC50 is less than 23 nM in assay [1], 23 nM in assay [2], 23 nM in assay [3] and 17 nM in assay [4].

Regarding `O=C(Nc1ccc(F)c(-n2cc3cc(N4CCOCC4)cnc3n2)c1)N1CC(F)(F)C1` [Compound 145, 3,3-difluoro-N-{4-fluoro-3-[5-(morpholin-4-yl)-2H-pyrazolo[3,4-b]pyridin-2-yl]phenyl}azetidine-1-carboxamide], the EC50 in assay [1] was less than 23 nM; in assay [2] it was 5.4 nM; in assay [3], 4.7 nM; in assay [4], 18 nM.

For `CC(C)OC(=O)Nc1cnc2nn(-c3cc(NC(=O)N4CC(F)(F)C4)ccc3F)cc2c1` [Compound 146, propan-2-yl N-(2-{5-[(3,3-difluoroazetidine-1-carbonyl)amino]-2-fluorophenyl}-2H-pyrazolo[3,4-b]pyridin-5-yl)carbamate], the concentration giving a half-maximal response (EC50) in assay [1] was less than 23 nM; in assay [2] it was 26 nM; in assay [3] it was 12 nM; in assay [4], 85 nM.

Turning to `O=C(Nc1ccc(F)c(-n2cc3cc(N4CCC4)cnc3n2)c1)N1CC(F)C1` [Compound 147, N-{3-[5-(azetidin-1-yl)-2H-pyrazolo[3,4-b]pyridin-2-yl]-4-fluorophenyl}-3-fluoroazetidine-1-carboxamide], the EC50 was less than 23 nM in assay [1], 6.1 nM in assay [2], 26 nM in assay [3] and 4.8 nM in assay [4].

Take `O=C(Nc1ccc(F)c(-n2cc3cc(C4CCOCC4)cnc3n2)c1)N1CC(F)C1` [Compound 148, 3-fluoro-N-{4-fluoro-3-[5-(oxan-4-yl)-2H-pyrazolo[3,4-b]pyridin-2-yl]phenyl}azetidine-1-carboxamide]: the EC50 is less than 23 nM in assay [1], 8.1 nM in assay [2], 12 nM in assay [3] and 14 nM in assay [4].

Regarding `O=C(Nc1ccc(F)c(-n2cc3cc(N4CCC4)cnc3n2)c1)N1CC[C@@H](F)C1` [Compound 149], the EC50 in assay [1] is less than 23 nM; in assay [2] it was 11 nM; in assay [3], 7.9 nM; in assay [4], 5.4 nM.

In the case of `O=C(Nc1ccc(F)c(-n2cc3cc(C4CCOCC4)cnc3n2)c1)N1CC[C@@H](F)C1` [Compound 150, (R)-3-fluoro-N-(4-fluoro-3-(5-(tetrahydro-2H-pyran-4-yl)-2H-pyrazolo[3,4-b]pyridin-2-yl)phenyl)pyrrolidine-1-carboxamide], the EC50 is less than 23 nM in assay [1], 14 nM in assay [2], 25 nM in assay [3] and 21 nM in assay [4].

As to `O=C(Nc1ccc(F)c(-n2cc3cc(N4CCC4)cnc3n2)c1)c1ccco1` [Compound 151, N-{3-[5-(azetidin-1-yl)-2H-pyrazolo[3,4-b]pyridin-2-yl]-4-fluorophenyl}furan-2-carboxamide], the EC50 is less than 23 nM in assay [1], 60 nM in assay [2], 13 nM in assay [3] and 12 nM in assay [4].

Regarding `O=C(Nc1ccc(F)c(-n2cc3cc(CC(F)(F)F)cnc3n2)c1)N1CC(F)C1` [Compound 152, 3-fluoro-N-(4-fluoro-3-(5-(2,2,2-trifluoroethyl)-2H-pyrazolo[3,4-b]pyridin-2-yl)phenyl)azetidine-1-carboxamide], the EC50 in assay [1] is less than 23 nM; in assay [2] it was 3.7 nM; in assay [3], 5.3 nM; in assay [4] it was 1.7 nM.

For `CNc1cnc2nn(-c3cc(NC(=O)c4oc(C)nc4C)ccc3F)cc2c1` [Compound 153, N-{4-fluoro-3-[5-(methylamino)-2H-pyrazolo[3,4-b]pyridin-2-yl]phenyl}-2,4-dimethyl-1,3-oxazole-5-carboxamide], the EC50 in assay [1] stood at 500 nM; in assay [2], 210 nM; in assay [3] it was 27000 nM; in assay [4] it was 150 nM.

`Cc1nc(C)c(C(=O)Nc2ccc(F)c(-n3cc4cc(N(C)C)cnc4n3)c2)o1` [Compound 154, N-{3-[5-(dimethylamino)-2H-pyrazolo[3,4-b]pyridin-2-yl]-4-fluorophenyl}-2,4-dimethyl-1,3-oxazole-5-carboxamide]: the EC50 was 37 nM in assay [1], 53 nM in assay [2], 78 nM in assay [3] and 23 nM in assay [4].

Regarding `Cc1nc(C)c(C(=O)Nc2ccc(F)c(-n3cc4cc(N5CCC5)cnc4n3)c2)o1` [Compound 155, N-{3-[5-(azetidin-1-yl)-2H-pyrazolo[3,4-b]pyridin-2-yl]-4-fluorophenyl}-2,4-dimethyl-1,3-oxazole-5-carboxamide], the EC50 is less than 23 nM in assay [1], 53 nM in assay [2], 22 nM in assay [3] and 18 nM in assay [4].

Take `Cc1nc(C)c(C(=O)Nc2ccc(F)c(-n3cc4cc(N5CCCC5)cnc4n3)c2)o1` [Compound 157, N-{4-fluoro-3-[5-(pyrrolidin-1-yl)-2H-pyrazolo[3,4-b]pyridin-2-yl]phenyl}-2,4-dimethyl-1,3-oxazole-5-carboxamide]: the EC50 was less than 23 nM in assay [1], 25 nM in assay [2], 18 nM in assay [3] and 13 nM in assay [4].

As a reminder, the EC50 is the midpoint of the concentration-response curve.
